Literature values in patent US20200397820A1, “Glycerol Release Promoter” (KOHAKU BIO TECHNOLOGY CO., LTD., priority 2018, published 2020).

Tested on: cultured adipocytes
Conditions: Patent Literature 10

In the case of `C[C@@]12C[C@@]3(O)O[C@@H](O1)[C@]1(COC(=O)c4ccccc4)[C@H]3C[C@@]12O[C@@H]1O[C@H](CO)[C@@H](O)[C@H](O)[C@H]1O` [Paeoniflorin], the “release of glycerol into the culture medium” value is given as “promotes the release of glycerol”.
